# System: cortisol antibodies (antisera to cortisol-3-carboxymethyloxime-BSA)
# Assay: competitive radioimmunoassay, binding affinity curves on antibody-coated polystyrene beads
# Parameters: species or system rabbit
# Experimental: Female rabbits were immunized subcutaneously at multiple sites with 1 mg of cortisol-3-CMO-BSA conjugate, prepared according to method of example 1, in saline emulsified with complete Freund's adjuvant (Difco Laboratories, Detroit, Michigan) on weeks 1, 2, 3 and 4 with booster injections of […] of the immunogen being given at longer intervals according to the antibody titer. Blood was collected from the marginal ear vein after three months of immunization. The serum was harvested and frozen for future use.
# Into appropriately labeled 12×75 mm plastic tubes containing polystyrene beads coated with cortisol antibodies generated according to this disclosure, was added 25 μl of standard serum, followed by 300 μl of radioactive assay solution containing a mixture of borate buffered saline, pH 8.8; 0.12% Triton X 100 and approximately 0.25 ng/ml of either the syn, anti or racemic mixture of ^125 I labeled tyrosine methyl ester derivative of cortisol-21-acetate-3-carboxymethyloxime. The reaction mixture was incubated with agitation at room temperature for one hour. The liquid contents of the tubes were aspirated and the radioactivity bound to the antibody coated beads was counted. The percent bound versus cortisol concentration was plotted. […] Knowing this preference, it would be advantageous in terms of sensitivity and specificity to employ only the syn isomer in assays for the determination of cortisol in biological fluids.
smiles,measurement,setting,value
COC(=O)[C@H](Cc1ccc(O)c([125I])c1)NC(=O)CO/N=C1\C=C2CC[C@@H]3[C@H]([C@@H](O)C[C@@]4(C)[C@H]3CC[C@]4(O)C(=O)COC(C)=O)[C@@]2(C)CC1 [I^125 syn isomer],affinity of antibody for labeled antigen conjugate (percent bound versus cortisol concentration),"approx. 0.25 ng/ml tracer, room temperature, one hour, borate buffered saline pH 8.8, compared with anti isomer and racemic mixture",demonstrably greater affinity
same,affinity constant calculated from slope of standard curves (FIG. 1),compared with I^125 -anti-isomer and I^125 -mixture (syn and anti),highest
same,immunoavidity of antisera for the labeled isomer,compared with labeled anti-isomer and racemic mixture,significant preference in immunoavidity
same,sensitivity of the antibody for the labeled isomer (FIG. 1),standard curves,increased sensitivity
